This passage reports IC50 results from US20260217717A1, “CDK2 INHIBITORS” (BLUEPRINT MEDICINES CORPORATION, priority 2023, published 2026).

The target of one assay is T1, CDK1/Cyclin B1 (Homo sapiens, UniProt P06493).
T1 construct: GST; purchased BPS 40454
Briefly: CDK1/Cyclin B1 enzymatic phosphorylation assay (Caliper mobility shift). In kind it is biochemical. Conditions: read-out: Enzyme CDK1/cyclin B1 IC50. Here is the method: (§1) Reactions proceeded until between 10% to 20% total peptides were phosphorylated at room temperature (25° C.) and were terminated with 35 mM 2,2′,2″,2′″-(ethane-1,2-diyldinitrilo)tetraacetic acid (EDTA). Product was detected using the Caliper mobility shift detection method where the phosphorylated peptide (product) and substrate were electrophoretically separated and measured. Percent activity was plotted against log concentration of compound and points to generate an apparent IC50.

A further assay deals with T2, CDK2/Cyclin E (Homo sapiens, UniProt P24941).
T2 construct: purchased Eurofins 14-475
Briefly: CDK2/Cyclin E enzymatic phosphorylation assay (Caliper mobility shift). Further: 1.0 mM ATP or ATP Km. It is filed as biochemical. Conditions: read-out: Enzyme CDK2/cyclin E IC50. How it is done: as §1

T1 sequence (P06493 whole entry): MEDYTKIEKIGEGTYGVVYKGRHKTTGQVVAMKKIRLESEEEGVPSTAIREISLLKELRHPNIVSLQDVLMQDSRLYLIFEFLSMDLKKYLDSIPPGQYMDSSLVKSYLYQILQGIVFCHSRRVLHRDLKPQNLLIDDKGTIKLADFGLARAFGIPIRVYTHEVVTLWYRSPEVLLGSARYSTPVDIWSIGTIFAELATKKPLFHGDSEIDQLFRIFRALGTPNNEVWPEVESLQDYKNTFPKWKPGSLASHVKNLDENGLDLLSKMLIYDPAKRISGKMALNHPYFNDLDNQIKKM
T1 sequence (P14635 whole entry partner): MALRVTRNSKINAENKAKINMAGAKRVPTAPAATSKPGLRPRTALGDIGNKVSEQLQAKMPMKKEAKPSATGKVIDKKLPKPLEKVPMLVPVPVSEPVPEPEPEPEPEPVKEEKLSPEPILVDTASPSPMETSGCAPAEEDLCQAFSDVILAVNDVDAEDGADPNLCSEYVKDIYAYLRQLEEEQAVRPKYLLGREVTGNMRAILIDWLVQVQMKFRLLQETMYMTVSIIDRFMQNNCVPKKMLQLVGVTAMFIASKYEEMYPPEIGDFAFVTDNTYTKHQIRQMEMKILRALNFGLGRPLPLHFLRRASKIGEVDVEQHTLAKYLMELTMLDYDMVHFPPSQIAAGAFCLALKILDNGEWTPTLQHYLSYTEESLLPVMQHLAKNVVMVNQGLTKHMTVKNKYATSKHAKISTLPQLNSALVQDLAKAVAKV

As for `C[C@@H](c1ccc(F)cc1)n1ncc2ncc(Nc3cc(C4COC4)[nH]n3)nc21` [Example 53, (S)-1-(1-(4-fluorophenyl)ethyl)-N-(5-(oxetan-3-yl)-1H-pyrazol-3-yl)-1H-pyrazolo[3,4-b]pyrazin-6-amine], the results for the IC50 at CDK1/Cyclin B1 and on CDK2/Cyclin E were 330 nM and 1.9 nM, respectively.
On the same counts, the results for `CC(C)c1cc(Nc2cnc3cnn(CC4CCOCC4)c3n2)n[nH]1` [Example 30, N-(5-isopropyl-1H-pyrazol-3-yl)-1-((tetrahydro-2H-pyran-4-yl)methyl)-1H-pyrazolo[3,4-b]pyrazin-6-amine] are 113 nM and 0.6 nM.
For `C[C@@H](c1cccnc1F)n1ncc2ncc(Nc3cc(C#N)[nH]n3)nc21` [Example 22, (S)-3-((1-(1-(2-fluoropyridin-3-yl)ethyl)-1H-pyrazolo[3,4-b]pyrazin-6-yl)amino)-1H-pyrazole-5-carbonitrile] the same measures were 3460 nM and 8.8 nM.
As for `CC(C)c1cc(Nc2cnc3cnn(C[C@H]4CCCOC4)c3n2)n[nH]1` (single isomer, unassigned) [Example 9, (R)-N-(5-isopropyl-1H-pyrazol-3-yl)-1-((tetrahydro-2H-pyran-3-yl)methyl)-1H-pyrazolo[3,4-b] pyrazin-6-amine or (S)-N-(5-isopropyl-1H-pyrazol-3-yl)-1-((tetrahydro-2H-pyran-3-yl)methyl)-1H-pyrazolo[3,4-b]pyrazin-6-amine], the IC50 on CDK1/Cyclin B1 came to 144 nM; at CDK2/Cyclin E, 0.6 nM.
For the compound `CC(C)c1cc(Nc2cnc3cnn(C[C@@H](C)CO)c3n2)n[nH]1` [Example 60, (R)-3-(6-((5-isopropyl-1H-pyrazol-3-yl)amino)-1H-pyrazolo[3,4-b]pyrazin-1-yl)-2-methylpropan-1-ol], the IC50 on CDK1/Cyclin B1 stood at 1570 nM; at CDK2/Cyclin E, 7.9 nM.
For `CC(C)c1cc(Nc2cnc3cnn(C[C@H](C)CO)c3n2)n[nH]1` [Example 61, (S)-3-(6-((5-isopropyl-1H-pyrazol-3-yl)amino)-1H-pyrazolo[3,4-b]pyrazin-1-yl)-2-methylpropan-1-ol], the IC50 on CDK1/Cyclin B1 came to 1880 nM; at CDK2/Cyclin E, 13.2 nM.
For `CCc1cc(Nc2cnc3cnn(CC4CCOCC4)c3n2)n[nH]1` [Example 37, N-(5-ethyl-1H-pyrazol-3-yl)-1-((tetrahydro-2H-pyran-4-yl)methyl)-1H-pyrazolo[3,4-b]pyrazin-6-amine] the same measures were 533 nM and 5.4 nM.
For `Cc1nn(Cc2cccnc2)c2nc(Nc3cc(C4COC4)[nH]n3)cnc12` [Example 4, 3-methyl-N-(5-(oxetan-3-yl)-1H-pyrazol-3-yl)-1-(pyridin-3-ylmethyl)-1H-pyrazolo[3,4-b]pyrazin-6-amine] the same measures were 5000 nM and 36.3 nM.
With `Fc1ccccc1Cn1ncc2ncc(Nc3cc(C4COC4)[nH]n3)nc21` [Example 45, 1-(2-fluorobenzyl)-N-(5-(oxetan-3-yl)-1H-pyrazol-3-yl)-1H-pyrazolo[3,4-b]pyrazin-6-amine], the IC50 was 1380 nM at CDK1/Cyclin B1 and 5.3 nM on CDK2/Cyclin E.
For `CC(C)c1cc(Nc2cnc3cnn(C[C@H]4CCOC4)c3n2)n[nH]1` (single isomer, unassigned) [Example 11, (R)-N-(5-isopropyl-1H-pyrazol-3-yl)-1-((tetrahydrofuran-3-yl)methyl)-1H-pyrazolo[3,4-b]pyrazin-6-amine or (S)-N-(5-isopropyl-1H-pyrazol-3-yl)-1-((tetrahydrofuran-3-yl)methyl)-1H-pyrazolo[3,4-b]pyrazin-6-amine] the same measures were 1270 nM and 3.8 nM.
On the same counts, the results for `C[C@@H](c1cccnc1)n1ncc2ncc(Nc3cc(C4CC4)[nH]n3)nc21` [Example 31, (S)-N-(5-cyclopropyl-1H-pyrazol-3-yl)-1-(1-(pyridin-3-yl)ethyl)-1H-pyrazolo[3,4-b]pyrazin-6-amine] are 57.8 nM and 0.1 nM.
For `Cc1cc(Nc2cnc3cnn([C@H]4CC[C@H](O)CC4)c3n2)n[nH]1` [Example 39, (1r,4r)-4-(6-((5-methyl-1H-pyrazol-3-yl)amino)-1H-pyrazolo[3,4-b]pyrazin-1-yl)cyclohexan-1-ol] the same measures were 7650 nM and 90 nM.
As to `Cc1cc(Nc2cnc3cnn([C@@H](C)c4cc(F)ccn4)c3n2)n[nH]1` (single isomer, unassigned) [Example 19, (S)-1-(1-(4-fluoropyridin-2-yl)ethyl)-N-(5-methyl-1H-pyrazol-3-yl)-1H-pyrazolo[3,4-b]pyrazin-6-amine or (R)-1-(1-(4-fluoropyridin-2-yl)ethyl)-N-(5-methyl-1H-pyrazol-3-yl)-1H-pyrazolo[3,4-b]pyrazin-6-amine], the IC50 worked out at 1380 nM on CDK1/Cyclin B1 and 4.5 nM on CDK2/Cyclin E.
On the same counts, the results for `c1nc2cnn(CC3CCOCC3)c2nc1Nc1cc(C2CC2)[nH]n1` [Example 36, N-(5-cyclopropyl-1H-pyrazol-3-yl)-1-((tetrahydro-2H-pyran-4-yl)methyl)-1H-pyrazolo[3,4-b]pyrazin-6-amine] are 83.6 nM and 0.5 nM.
Turning to `Cc1cc(Nc2cnc3cnn([C@@H](C)c4cccnc4F)c3n2)n[nH]1` [Example 56, (S)-1-(1-(2-fluoropyridin-3-yl)ethyl)-N-(5-methyl-1H-pyrazol-3-yl)-1H-pyrazolo[3,4-b]pyrazin-6-amine], the IC50 worked out at 709 nM at CDK1/Cyclin B1 and 3 nM at CDK2/Cyclin E.
Turning to `O[C@H]1CC[C@H](n2ncc3ncc(Nc4cc(C5COC5)[nH]n4)nc32)CC1` [Example 38, (1r,4r)-4-(6-((5-(oxetan-3-yl)-1H-pyrazol-3-yl)amino)-1H-pyrazolo[3,4-b]pyrazin-1-yl)cyclohexan-1-ol], the IC50 at CDK1/Cyclin B1 worked out at 509 nM; at CDK2/Cyclin E, 3.5 nM.
For `C[C@@H](c1cccnc1)n1ncc2ncc(Nc3cc(C(F)F)[nH]n3)nc21` [Example 2, (S)-N-(5-(difluoromethyl)-1H-pyrazol-3-yl)-1-(1-(pyridin-3-yl)ethyl)-1H-pyrazolo[3,4-b]pyrazin-6-amine], the values for the IC50 on CDK1/Cyclin B1 and at CDK2/Cyclin E were 6030 nM and 22.8 nM, respectively.
On the same counts, the results for `CC(C)c1cc(Nc2cnc3cnn([C@H](C)c4cccnc4)c3n2)n[nH]1` [Example 40, (R)-N-(5-isopropyl-1H-pyrazol-3-yl)-1-(1-(pyridin-3-yl)ethyl)-1H-pyrazolo[3,4-b]pyrazin-6-amine] are 93 nM and 0.3 nM.
Take `CC[C@H]([C@H](C)O)n1ncc2ncc(Nc3cc(C(C)C)[nH]n3)nc21` (single isomer, unassigned) [Example 14, (2S,3R)-3-(6-((5-isopropyl-1H-pyrazol-3-yl)amino)-1H-pyrazolo[3,4-b]pyrazin-1-yl)pentan-2-ol or (2S,3S)-3-(6-((5-isopropyl-1H-pyrazol-3-yl)amino)-1H-pyrazolo[3,4-b]pyrazin-1-yl)pentan-2-ol]: the IC50 worked out at 3130 nM at CDK1/Cyclin B1 and 23.9 nM at CDK2/Cyclin E.
Take `Fc1ncccc1Cn1ncc2ncc(Nc3cc(C4COC4)[nH]n3)nc21` [Example 49, 1-((2-fluoropyridin-3-yl)methyl)-N-(5-(oxetan-3-yl)-1H-pyrazol-3-yl)-1H-pyrazolo[3,4-b]pyrazin-6-amine]: the values for the IC50 on CDK1/Cyclin B1 and on CDK2/Cyclin E were 644 nM and 2.8 nM, respectively.
For `CC(C)c1cc(Nc2cnc3cnn([C@H]4CC[C@H](O)CC4)c3n2)n[nH]1` [Example 57, (1r,4r)-4-(6-((5-isopropyl-1H-pyrazol-3-yl)amino)-1H-pyrazolo[3,4-b]pyrazin-1-yl)cyclohexan-1-ol] the same measures were 174 nM and 1 nM.
Turning to `CC(=O)N1CCC(n2ncc3ncc(Nc4cc(C(C)C)[nH]n4)nc32)CC1` [Example 58, 1-(4-(6-((5-isopropyl-1H-pyrazol-3-yl)amino)-1H-pyrazolo[3,4-b]pyrazin-1-yl)piperidin-1-yl)ethan-1-one], the IC50 worked out at 237 nM at CDK1/Cyclin B1 and 3.5 nM at CDK2/Cyclin E.
`CC(C)c1cc(Nc2cnc3cnn([C@@H](C)c4cccnc4)c3n2)n[nH]1` [Example 29, (S)-N-(5-isopropyl-1H-pyrazol-3-yl)-1-(1-(pyridin-3-yl)ethyl)-1H-pyrazolo[3,4-b]pyrazin-6-amine]: the IC50 at CDK1/Cyclin B1 stood at 159 nM; at CDK2/Cyclin E it was 0.2 nM.
For the compound `C[C@@H](c1cccnc1)n1ncc2ncc(Nc3cc(C4COC4)[nH]n3)nc21` [Example 33, (S)-N-(5-(oxetan-3-yl)-1H-pyrazol-3-yl)-1-(1-(pyridin-3-yl)ethyl)-1H-pyrazolo[3,4-b]pyrazin-6-amine], the IC50 at CDK1/Cyclin B1 came to 1420 nM; at CDK2/Cyclin E, 6.4 nM.
As to `c1nc2cnn(CC3CCOCC3)c2nc1Nc1cc(C2COC2)[nH]n1` [Example 35, N-(5-(oxetan-3-yl)-1H-pyrazol-3-yl)-1-((tetrahydro-2H-pyran-4-yl)methyl)-1H-pyrazolo[3,4-b]pyrazin-6-amine], the IC50 worked out at 877 nM at CDK1/Cyclin B1 and 11.3 nM at CDK2/Cyclin E.
For `C[C@@H](c1ccccn1)n1ncc2ncc(Nc3cc(C#N)[nH]n3)nc21` [Example 25, (S)-3-((1-(1-(pyridin-2-yl)ethyl)-1H-pyrazolo[3,4-b]pyrazin-6-yl)amino)-1H-pyrazole-5-carbonitrile] the same measures were 10000 nM and 76.1 nM.
On to `Fc1cncc(Cn2ncc3ncc(Nc4cc(C5COC5)[nH]n4)nc32)c1` [Example 50, 1-((5-fluoropyridin-3-yl)methyl)-N-(5-(oxetan-3-yl)-1H-pyrazol-3-yl)-1H-pyrazolo[3,4-b]pyrazin-6-amine], for which the IC50 on CDK1/Cyclin B1 is 3060 nM; at CDK2/Cyclin E it was 44.8 nM.
For `Cc1nc2cnn(Cc3cccnc3)c2nc1Nc1cc(C(C)C)[nH]n1` [Example 18, N-(5-isopropyl-1H-pyrazol-3-yl)-5-methyl-1-(pyridin-3-ylmethyl)-1H-pyrazolo[3,4-b]pyrazin-6-amine] the same measures were 3230 nM and 15.1 nM.
